Source: patent US20240139136A1, “METHODS AND FORMULATIONS FOR TOPICAL ADMINISTRATION OF GABAPENTINOIDS” (VYLUMA INC., priority 2021, published 2024)

The molecules below were run on rats with post-surgical corneal injuries (assay: Capsaicin-induced ipsilateral paw (eye) wipes in rats with post-surgical corneal injury). Details: 3% ophthalmic formulation, topical; challenge with 40 μL 0.1% capsaicin 15 minutes after administration; compared with capsaicin-alone baseline; FIG. 1.
Assay type: in vivo
Description: Test ophthalmic formulations were administered to rats with post-surgical corneal injuries to test the efficacy of the formulations in treating corneal pain. A negative control was established by treating all animals with artificial tears (AT) and counting ipsilateral paw wipes for 60 seconds (FIG. 1, Baseline (Pre-induction)). 20 minutes later, a positive control was established by treating all animals with 40 μL 0.1% capsaicin and counting ipsilateral paw wipes for 60 seconds (FIG. 1, Baseline). Eyes were then flushed with balanced salt solution (BSS) and AT. 20 minutes later, all animals were treated with the test ophthalmic formulation (0.5% proparacaine (positive control), 3% nalbuphine, 3% pregabalin, or 3% ketamine). 15 minutes later, all animals were treated with 40 μL 0.1% capsaicin, and ipsilateral paw wipes were counted for 60 seconds (FIG. 1, 15 Minutes).

| Compound | eye wipes (ipsilateral paw wipes counted for 60 seconds) |
| --- | --- |
| CNC1(c2ccccc2Cl)CCCCC1=O (stereo not drawn) [ketamine] | borderline response |
| Oc1ccc2c3c1O[C@H]1[C@@H](O)CC[C@@]4(O)[C@@H](C2)N(CC2CCC2)CC[C@]314 [nalbuphine] | significant decrease |
| CC(C)C[C@H](CN)CC(=O)O [pregabalin] | significant decrease |
